Key:
C. albicans = assay: Checkerboard synergy assay with polysaccharide synthesis inhibitors; type: cell-based, Candida albicans; details: for MIC: Candida albicans, read-out: MIC of polysaccharide synthesis inhibitor alone
Protocol: (§1) Saccharomyces cerevisiae deletion strains were retrieved from the haploid non-essential deletion collection (ThermoScientific) and were isogenic with the wild type BY4741 (MATa his3Δ1 leu2Δ0 met15Δ0 ura3Δ0). Candida albicans experiments were performed with strain ATCC90028.
(§2) Antifungal assays were performed as described in ([Bleackley et al., 2014]). S. cerevisiae cells were prepared by diluting to an OD600 = 0.01 and C. albicans cells were diluted to OD600 = 0.0002 in ½ strength potato dextrose broth (1/2 PDB) (Becton Dickinson). Assays investigating the combined effect of chemical cell wall synthesis inhibitors with defensins were performed as described in ([Bleackley et al., 2017]). Synergy was assessed using the fractional inhibitory concentration (FIC) equation. FIC=MICAcombination/MICAalone+MICBcombination/MICBalone
(§3) Synergy is defined as an FIC value of less than 0.5. Assays investigating the activity of defensins in salt were set up using the same checkerboard method as the synergy assays but with NaCl in place of one of the antifungal molecules.

S. cerevisiae BY4741 [1] = assay: Antifungal growth assay, wild type; type: cell-based, Saccharomyces cerevisiae; details: 1/2 PDB, twofold dilution series, lowest concentration with no visible growth, three independent experiments
Protocol: as §1, §2

S. cerevisiae [2] = assay: Checkerboard synergy assay with polysaccharide synthase inhibitors; type: cell-based, Saccharomyces cerevisiae; details: average of three independent experiments ± standard deviation, synergy FIC <0.5
Protocol: as §2, §3

S. cerevisiae [3] = assay: Growth inhibition in varying NaCl (checkerboard); type: cell-based, Saccharomyces cerevisiae; details: 1/2 PDB; for Effect of increasing NaCl concentration on growth inhibitory activity: NaCl checkerboard up to about 100 mM, representative of three independent replicates
Protocol: as §2, §3

[4] = Polysaccharide binding (solution depletion) to chitin; design: species or system shrimp; details: one-site binding model
Protocol: (§4) Defensin binding to polysaccharides was examined using the protocol described in ([Osmond et al., 2001]) with some modifications. Briefly, the insoluble polysaccharides, yeast β-glucan (Megazyme), chitin from shrimp shells (Sigma), and microcrystalline cellulose (Sigma) were washed twice with water and once with phosphate buffered saline (PBS) and resuspended in PBS at 100 mg/mL. The appropriate volume of polysaccharide suspension was transferred to a 1.5 mL microfuge tube. PBS was added to increase the volume to 47.5 µL followed by defensin (2.5 µL of 0.8 mg/mL in H2O). This mixture was incubated on a rotating wheel at room temperature for 30 min before insoluble polysaccharide was pelleted at 17 000 g. Supernatant (25 µL) was transferred to a clean 1.5 mL microfuge tube, mixed with 5 µL of a 1:9 mix of Bond Breaker reducing agent (ThermoFisher):NuPage LDS Loading Buffer (Invitrogen) and heated to 95 °C for 20 min. Samples (20 µL) were loaded onto a 10% NOVEX Bolt BisTris gel (Life Technologies). Proteins were visualized by staining with RAPIDstain (Calbiochem) and imaged on a ChemiDoc (Bio-Rad). Densitometry was performed on resulting bands using the quantitation tool in ImageLab (V4.0 Bio-Rad) and the abundance of defensin remaining in the supernatant was calculated relative to the no polysaccharide control. Relative binding to the pellet was inferred as the amount of defensin that had been depleted from the supernatant (1-relative binding to pellet). All experiments were performed in triplicate. Kd values were calculated by plotting the relative binding vs the polysaccharide concentration in Prism (V7.0 GraphPad) and using the non-linear regression tool with the one-site binding hyperbola equation.

S. cerevisiae chs3Δ = assay: Antifungal growth assay, chitin synthase deletion strain; type: cell-based, Saccharomyces cerevisiae; details: 1/2 PDB, twofold dilution series, lowest concentration with no visible growth, three independent experiments
Protocol: as §1, §2

S. cerevisiae fks1Δ = assay: Antifungal growth assay, 1,3-β-glucan synthase deletion strain; type: cell-based, Saccharomyces cerevisiae; details: 1/2 PDB, twofold dilution series, lowest concentration with no visible growth, three independent experiments
Protocol: as §1, §2

[5] = Polysaccharide binding (solution depletion) to yeast β-glucan; details: one-site binding model
Protocol: as §4

yeast spheroplasts = assay: Cell death of spheroplasts, SYTOX green flow cytometry; type: cell-based, Saccharomyces cerevisiae
Protocol: (§5) Spheroplasts were prepared as outlined in ([Guthrie and Fink, 2002]) with modifications. Cells were prepared with and without the addition of zymolyase (Sigma) and washed twice with ½ PDB with 1 M sorbitol prior to any defensin treatment. Successful hydrolysis of the cell wall was assessed by pelleting an aliquot of spheroplasts, resuspending in MilliQ H2O and assessing cell lysis. For survival assays, intact cells or spheroplasts were diluted in ½ PDB with 1 M sorbitol to an OD600 = 1. NaD1 (10 µL) at 0, 25, 50 or 100 µM was added to 90 µL of prepared cells or spheroplasts and incubated at 30 °C for 30 min. Serial dilutions of each treatment were plated onto YPD and incubated for 24 h at 30 °C prior to imaging. Assessment of the effect of NaCl on the activity of NaD1 on spheroplasts was conducted as described above except for the addition of 100 mM NaCl to the ½ PDB 1 M sorbitol in the appropriate treatment. The cell death indicator, SYTOX green (ThermoFisher), was added to all treatments to a final concentration of 1 µM and FACS analysis was performed using a FACS Canto II (BD biosciences) using the FITC settings. Analysis was performed using Weasel V3.0 (Walter and Eliza Hall Institute of Medical Research).

[6] = test system: yeast cells with intact cell walls; assay: Cell death of intact yeast cells, SYTOX green flow cytometry; type: cell-based, Saccharomyces cerevisiae
Protocol: as §5

S. cerevisiae BY4741 [7] = assay: Survival assay in the presence of exogenous 1,3-β-glucan (laminarin); type: cell-based, Saccharomyces cerevisiae; details: plated on YPD agar; for Laminarin concentration protecting against the antifungal activity of NaD1: 20 µM NaD1, 1 h
Protocol: To assess the effect of exogenous 1,3-β-glucan on the activity of NaD1, a survival assay was employed essentially as described in ([Bleackley et al., 2017]). A two-fold dilution series of laminarin (Sigma) from 50 mg/mL was prepared in MilliQ H2O and 10 µL of each concentration plus a no laminarin control were transferred to the wells of a U-bottom 96 well microtitre plate (Greiner Bio-one). NaD1 (10 µL of 200 µM solution) was added to each laminarin preparation. Controls with no NaD1 or laminarin were also prepared. An overnight culture of S. cerevisiae BY4741 cells was diluted to OD600 = 0.1 in ½ PDB. The diluted yeast cell suspension was then added to each of the wells of the microtitre plate and incubated at 30 °C with shaking at 750 rpm in a Thermomixer (Eppendorff) for 1 h. A fivefold dilution series of each treatment was then spotted onto YPD agar (1% yeast extract, 2% peptone, 2% dextrose, 2% agar) and incubated at 30 °C prior to imaging.

[8] = Polysaccharide binding (solution depletion) to cellulose; details: SDS-PAGE analysis of supernatant, 3 independent experiments
Protocol: as §4, with “Samples (20 µL) were loaded onto a 10% NOVEX Bolt BisTris gel (Life Technologies). Proteins were visualized by staining with RAPIDstain (Calbiochem) and imaged on a ChemiDoc (Bio-Rad).” left out, “Relative binding to the pellet was inferred as the amount of defensin that had been depleted from the supernatant (1-relative binding to pellet). All experiments were performed in triplicate.” left out

[9] = insoluble polysaccharide in PBS, 30 min room temperature, SDS-PAGE densitometry of supernatant, Kd based on concentration of monosaccharide units, ± SEM, three independent replicates
[10] = C. albicans checkerboard, synergy defined as FIC < 0.5
[11] = solution depletion, SDS-PAGE densitometry, polysaccharide mass concentration, 3 independent experiments

With `CC[C@H](C)C[C@H](C)CCCCCCCCC(=O)N[C@H]1C[C@@H](O)[C@@H](NCCN)NC(=O)[C@@H]2[C@@H](O)CCN2C(=O)[C@H]([C@H](O)CCN)NC(=O)[C@H]([C@H](O)[C@@H](O)c2ccc(O)cc2)NC(=O)[C@@H]2C[C@@H](O)CN2C(=O)[C@H]([C@@H](C)O)NC1=O` [caspofungin, reference compound] the MIC (C. albicans) was 0.25 µg/mL.
Compound `C[C@@H]([C@H](N)C(=O)N[C@H](C(=O)O)[C@H]1O[C@@H](n2ccc(=O)[nH]c2=O)[C@H](O)[C@@H]1O)[C@H](O)c1ccc(O)cn1` [nikkomycin Z, reference compound] has an MIC (C. albicans) of 2.5 µg/mL.
In the case of “DmAMP1: defensin from Dahlia merckii expressed in Pichia pastoris (ELCEKASKTWSGNCGNTGHCDNQCKSWEGAAHGACHVRNGKHMCFCYFNC; UniProt P0C8Y4 1-50, looked up)”, the MIC (S. cerevisiae BY4741 [1]) is reported as 0.31 µM, the “FIC in combination with caspofungin” value (S. cerevisiae [2]) is reported as 0.6 ± 0.06 and the “FIC in combination with nikkomycin” value (S. cerevisiae [2]) is reported as 0.64 ± 0.16. For the same compound, the “Effect of increasing NaCl concentration on growth inhibitory activity” value (S. cerevisiae [3]) was “no loss of growth inhibitory activity”, the “Concentration completely inhibiting growth” value (S. cerevisiae [3]; absence of added NaCl, absorbance at 595 nm) was 0.313 µM and the “Kd, chitin” value [4, 9] was “Neither TsD10 nor DmAMP1 bound”. The MIC (S. cerevisiae chs3Δ) was 0.31 µM, the MIC (S. cerevisiae fks1Δ) was 0.16 µM and the “Kd, β-glucan” value [5, 9] was “No binding”.
With “NaD1: plant defensin from the ornamental tobacco Nicotiana alata, isolated from flowers (RECKTESNTFPGICITKPPCRKACISEKFTDGHCSKILRRCLCTKPC; UniProt Q8GTM0 26-72, looked up)” the “NaD1 concentration giving significant cell death” value (yeast spheroplasts; 1 M sorbitol with 100 mM NaCl, SYTOX green) was at least 0.313 µM, the “Cell death (SYTOX green)” value (yeast spheroplasts; NaD1 concentrations above 0.625 µM, 1/2 PDB with 1 M sorbitol, 30 °C 30 min) was “over 60%” and the “Effect on cell death” value ([6]; 1 M sorbitol with 100 mM NaCl, up to 10 µM NaD1, SYTOX green) was “unaffected”. The “Cell death (SYTOX green)” value ([6]; NaD1 5 µM, 1/2 PDB with 1 M sorbitol, 30 °C 30 min) was 60%, the “FIC in combination with caspofungin” value (C. albicans; [10]) was 0.3 and the “FIC in combination with nikkomycin Z” value (C. albicans; [10]) was 0.92. The MIC (S. cerevisiae BY4741 [1]) was 2.5 µM, the “FIC in combination with caspofungin” value (S. cerevisiae [2]) was 0.3 ± 0.06 and the “Survival of yeast cells” value (S. cerevisiae BY4741 [7]; 20 µM NaD1, absence of laminarin, 1 h) was “eliminated all viable yeast cells”. The “Effect of increasing NaCl concentration on growth inhibitory activity” value (S. cerevisiae [3]) was “progressively poorer inhibitor”, the Kd [4, 9] was 33 ± 11.8 mM and the “Kd, chitin” value [4, 11] was 6700 ± 2400 µg/mL. It also gave an MIC (S. cerevisiae chs3Δ) of 2.5 µM, an MIC (S. cerevisiae fks1Δ) of 1.25 µM and a Kd [5, 9] of 25.9 ± 5 mM. For the same compound, the “Kd, β-glucan” value [5, 11] was 4200 ± 800 µg/mL and the Binding to cellulose [8] was “did not bind”.
With laminarin the “Laminarin concentration protecting against the antifungal activity of NaD1” value (S. cerevisiae BY4741 [7]) was at least 1.25 mg/mL and the “Laminarin concentration protecting against the antifungal activity of NaD1” value (S. cerevisiae BY4741 [7]; listed as Laminarin) was “above 1.25 mg/mL”.
